# Results: patent US20260137653A1, “USE OF HEROMBOPAG OR PHARMACEUTICALLY ACCEPTABLE SALT THEREOF IN TREATMENT OF TUMOR CHEMOTHERAPY-INDUCED THROMBOCYTOPENIA” (JIANGSU HENGRUI PHARMACEUTICALS CO., LTD., priority 2022, published 2026)
# Tested on: patients with chemotherapy-induced thrombocytopenia (platelet count <75×10^9/L, chemotherapy delay ≥1 week)
# Assay: Randomized placebo-controlled clinical study of herombopag olamine tablets in thrombocytopenia induced by chemotherapy for malignant tumors (Example 1)
# Type: in vivo, human
# Protocol: Investigational drug: herombopag olamine tablets, 2.5 mg/tablet, manufactured and provided by Jiangsu Hengrui Pharmaceuticals Co., Ltd.
# Control drug: herombopag olamine simulated tablets (placebo), 2.5 mg/tablet, identical in shape, color, weight, etc. to the herombopag olamine tablets, manufactured and provided by Jiangsu Hengrui Pharmaceuticals Co., Ltd.
# Patients must meet all of the following inclusion criteria to be eligible for the study: • 1. Age between 18 years and 75 years (inclusive), regardless of gender. • 2. Pathologically or cytologically confirmed diagnosis of malignant tumors, including lung cancer (small cell or non-small cell), breast cancer, bladder cancer, etc. • 3. The subject is currently receiving a chemotherapy regimen on a 21-day cycle (excluding other chemotherapy cycle lengths) and requires the use of one or more chemotherapeutic drugs, such as: • Antimetabolites, including gemcitabine, etc.; • Platinum-based agents, including carboplatin, nedaplatin, cisplatin, lobaplatin, etc.; • Anthracyclines, including doxorubicin, daunorubicin, epirubicin, etc.; • Alkylating agents, including cyclophosphamide, ifosfamide, etc. • 4. The subject experiences a delay of ≥1 week in chemotherapy relative to the expected time due to thrombocytopenia, and the platelet count remains <75×10^9/L. • 5. Physical fitness status ECOG score of 0-1. • 6. The subject has an expected survival period of ≥12 weeks at the time of screening and is able to receive at least 2 or more cycles of the current chemotherapy regimen. • 7. Subjects of childbearing potential must agree to use reliable methods of contraception throughout the study (including male or female condoms, contraceptive foams, contraceptive gels, contraceptive films, contraceptive creams, contraceptive suppositories, abstinence, placement of intrauterine devices, etc.). Female subjects who have undergone a hysterectomy, bilateral salpingectomy, or bilateral tubal ligation or have been postmenopausal for more than 1 year and male subjects who have undergone a bilateral vasectomy or ligation are excluded. • 8. The subject is willing to participate in the study, can provide written informed consent, and has good compliance.
# Patients meeting any one of the following criteria are excluded from the study: • 1. Screening or baseline platelet count of <30×10^9/L. • 2. Platelet count of <75×10^9/L prior to the first dose of chemotherapy. • 3. Hematopoietic diseases other than chemotherapy-induced thrombocytopenia (CIT), including but not limited to leukemia, primary immune thrombocytopenia, myeloproliferative diseases, multiple myeloma, and myelodysplastic syndrome. • 4. […]
smiles,measurement,setting,value
"CC1=NN(c2ccc3c(c2)CCCC3)C(=O)/C1=N\Nc1cccc(-c2ccc(C(=O)O)o2)c1O [herombopag olamine tablets, herombopag]","OR value for achieving the primary study endpoint, investigational group vs placebo group","95% CI 2.82-38.65, p=0.0001",10.44
same,proportion of subjects in which the drug is therapeutically effective (patients achieving the primary study endpoint),"investigational group n=28 (17/28), starting dose 7.5 mg once daily oral, two consecutive 21-day chemotherapy cycles, 95% CI 40.6-78.5, placebo 4/31 (12.9%)",60.7%
same,incidence of adverse events,investigational group vs placebo group,comparable between the investigational group and the placebo group
same,grade 3 or higher grade treatment-related adverse events or treatment-related serious adverse events,"investigational group, starting dose 7.5 mg once daily",No grade 3 or higher grade treatment-related adverse events or treatment-related serious adverse events were observed
